Assay results reported in patent publication US20160158184A1, “SELF-EMULSIFYING COMPOSITION OF OMEGA3 FATTY ACID” (priority 2013, published 2016).

Assay: Pharmacokinetics in beagles (Test Example 5)
Type: in vivo
Parameters: unit not given beside the values
Conditions: male beagles fasted 18 hours or more, oral, 600 mg of EPA-E, plasma EPA, corrected for pre-dose value
Method: The composition or the capsule prepared was orally administered to 6 male beagles (at the age of 2 to 6 years with the body weight of 8 to 13 kg, 3 Marshall beagles and 3 Nosan beagles) under fasting conditions, and blood EPA concentration was evaluated. The test animals were fasted 18 hours or more before the administration, and each animal was administered with the composition at an amount corresponding to 600 mg of the EPA-E. Blood was collected before the administration, and 0.5, 1, 1.5, 2, 3, 4, 6, 8, and 24 hours after the administration, and plasma was separated to measure plasma EPA concentration by LC/MS/MS (a method of separating a sample by liquid chromatography and separating the resultant components by mass spectrometry for measurement). The control group was administered with the EPA-E stock solution encapsulated in a capsule. […] In the calculation of each parameter, the value was corrected by subtracting the blood EPA concentration before the administration of the composition.

AUC0-2 (0 to 2 hours): 11.3
AUC0-24 (0 to 24 hours): 76.6
SMILES: CC/C=C\C/C=C\C/C=C\C/C=C\C/C=C\CCCC(=O)OCC [Comp. Ex. 5, Ethyl eicosapentaenoate ester]
